Laboratory results published in US20230212549A1, “COMPOUNDS COMPRISING A […] LIGAND AND USE THEREOF” (priority 2021, published 2023).
Numbered stars: 1 amine (or outer) side, 2 acyl side, 3 side chain; on linkers, the order of the positions; unused ones are H or OH. Bridge positions count the residues as written; N and C are the ends. Square brackets hold non-standard residues; d marks the D form. Peptide text beside a SMILES is read from it. * marks the point of attachment. X6 = NCCNCC(CNCCN)C(=O)NCCOCCOCCOCCOCCOCCOCCC(=O)NCCCOCCOCCOCCCN*; X1 = NCCNCC(CNCCN)C(=O)N1CCN(CC(=O)NCCCOCCOCCOCCCN*)CC1; mXylylene = c1cc(C[*:1])cc(C[*:2])c1; Suc = O=C(CCC(=O)[*:2])[*:1]; Nle = CCCC[C@H](N)C(=O)O

What was measured:
[1] = target: T1, FAP-expressing human WI-38 fibroblasts (Homo sapiens, UniProt Q12884); assay: Competitive FACS binding assay
T1 construct: FAP-expressing human WI-38 fibroblasts (ECACC) were cultured in EMEM; host or cells: WI-38 human fibroblasts
T1 sequence (Q12884 whole entry): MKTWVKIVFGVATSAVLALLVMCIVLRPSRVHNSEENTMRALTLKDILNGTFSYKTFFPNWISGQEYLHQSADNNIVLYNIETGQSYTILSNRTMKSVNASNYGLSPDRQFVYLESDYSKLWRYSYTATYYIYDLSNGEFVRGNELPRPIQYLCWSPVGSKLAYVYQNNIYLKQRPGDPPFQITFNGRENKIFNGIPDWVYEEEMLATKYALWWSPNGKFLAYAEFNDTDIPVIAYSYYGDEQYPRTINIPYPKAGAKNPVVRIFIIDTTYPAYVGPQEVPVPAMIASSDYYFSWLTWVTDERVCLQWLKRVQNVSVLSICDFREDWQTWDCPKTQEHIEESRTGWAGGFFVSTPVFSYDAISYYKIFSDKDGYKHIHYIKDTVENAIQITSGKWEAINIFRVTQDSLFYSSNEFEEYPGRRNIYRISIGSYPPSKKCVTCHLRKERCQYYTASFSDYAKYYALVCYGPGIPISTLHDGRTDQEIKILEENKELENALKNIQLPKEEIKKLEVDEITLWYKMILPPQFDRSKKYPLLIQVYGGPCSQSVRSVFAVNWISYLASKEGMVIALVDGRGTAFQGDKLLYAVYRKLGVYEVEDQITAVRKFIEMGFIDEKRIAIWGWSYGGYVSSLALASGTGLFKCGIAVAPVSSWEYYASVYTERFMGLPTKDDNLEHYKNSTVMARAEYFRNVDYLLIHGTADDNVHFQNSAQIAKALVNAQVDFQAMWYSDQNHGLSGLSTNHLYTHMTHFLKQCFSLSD
Experimental: Cells were analyzed in an Attune NxT flow cytometer. […] […].
Cells were analyzed in an Attune NxT flow cytometer. […]

[2] = target: T2, Human recombinant FAP (Homo sapiens, UniProt Q12884); assay: Surface plasmon resonance (Biacore) assay; assay type: binding
T2 sequence (Q12884 whole entry): as above

[3] = Radiochemical purity by HPLC of ^99mTc-labeled compounds; assay type: physicochemical; details: 99Tc-labeled compounds
Experimental: 100-500 MBq of ^99mTcO4 (in saline) were mixed with 11 μl of 0.5 M phosphate buffer pH 11.5-12.0 and 1.1 μl of 0.1 M trisodium citrate per 100 μl radionuclide solution. […] The mixture was incubated for 30 min at 25-50′° C. At the end of the incubation time, the mixture was neutralized with 3.0 μl 1 M HCl per 10 μl phosphate buffer and TWEEN-20 was added at a final concentration of 0.100.

[4] = in vivo; details: swiss nude, mouse, iv
[5] = target: T2, Human recombinant FAP; assay: FRET-based FAP protease activity assay; assay type: biochemical; design: purchased R&D systems 3715-SE; details: pIC50 Category (activity), Recombinant human FAP

Row | Structure (SMILES) | IC50 [1] [nM] | Kd [2] [nM] | HPLC Area % at end of synthesis [3] [%] | HPLC Area % appr. 4 h post end of synthesis ([3]; (3 h)) [%] | tissue uptake at 1 h ([4]; blood pool surrogate (BPS)) [%ID/g] | tissue uptake at 3 h ([4]; blood pool surrogate (BPS)) [%ID/g] | tissue uptake at 6 h ([4]; blood pool surrogate (BPS)) [%ID/g] | tissue uptake at 1 h ([4]; kidneys) [%ID/g] | tissue uptake at 3 h ([4]; kidneys) [%ID/g] | tissue uptake at 6 h ([4]; kidneys) [%ID/g] | tissue uptake at 1 h ([4]; tumor) [%ID/g] | tissue uptake at 3 h ([4]; tumor) [%ID/g] | tissue uptake at 6 h ([4]; tumor) [%ID/g] | IC50 [5] [nM] | HPLC Area % appr. 4 h post end of synthesis [3] [%]
1 | CCCC[C@H](NC(=O)CCC(=O)NCCCOCCOCCOCCCNC(=O)C(CNCCN)CNCCN)C(=O)N[C@H]1CSCc2cncc(c2)CSCC(C(=O)O)NC(=O)[C@H](Cc2ccccc2)NC(=O)[C@H](CCC(N)=O)NC(=O)[C@H]([C@@H](C)O)NC(=O)[C@@H]2CCCN2C(=O)[C@@H]2CCCN2C1=O (stereo partly drawn) [3BP-4549, N4Ac-Ttds-Nle-[Cys(3Lut)-Pro-Pro-Thr-Gln-Phe-Cys]-OH] | 10 to 79.4 | 10 to 79.4 | 99.3 | 97.6 | 0.18 | 0.03 | 0.01 | 4.22 | 1.82 | 0.58 | 6.04 | 4.25 | 1.68 | < 10 | –
2 | CCCC[C@H](NC(=O)CCOCCOCCOCCOCCOCCOCCNC(=O)C(CNCCN)CNCCN)C(=O)N[C@H]1CSCc2cncc(c2)CSCC(C(=O)O)NC(=O)[C@H](Cc2ccccc2)NC(=O)[C@H](CCC(N)=O)NC(=O)[C@H]([C@@H](C)O)NC(=O)[C@@H]2CCCN2C(=O)[C@@H]2CCCN2C1=O (stereo partly drawn) [3BP-4550, N4Ac-PEG6-Nle-[Cys(3Lut)-Pro-Pro-Thr-Gln-Phe-Cys]-OH] | 100 to 794 | 10 to 79.4 | 100 | 98.0 | 0.06 | 0.03 | 0.04 | 0.92 | 0.62 | 0.38 | 6.14 | 4.91 | 2.91 | 10 to 79.4 | –
3 | CCCC[C@H](NC(=O)CCOCCOCCOCCOCCOCCOCCNC(=O)C(CNCCN)CNCCN)C(=O)N[C@H]1CSCc2cccc(c2)CSCC(C(=O)O)NC(=O)[C@H](Cc2ccccc2)NC(=O)[C@H](CCC(N)=O)NC(=O)[C@H]([C@@H](C)O)NC(=O)[C@@H]2CCCN2C(=O)[C@@H]2CCCN2C1=O (stereo partly drawn) [3BP-4551, N4Ac-PEG6-Nle-[Cys(3MeBn)-Pro-Pro-Thr-Gln-Phe-Cys]-OH] | 10 to 79.4 | 10 to 79.4 | 94.1 | – | 0.18 | 0.07 | 0.04 | 4.34 | 1.18 | 0.5 | 10.6 | 7.31 | 4.59 | 10 to 79.4 | 90.8
4 | CCCC[C@H](NC(=O)CCC(=O)NCCCOCCOCCOCCCNC(=O)CCOCCOCCOCCOCCOCCOCCNC(=O)C(CNCCN)CNCCN)C(=O)N[C@H]1CSCc2cccc(c2)CSCC(C(=O)O)NC(=O)[C@H](Cc2ccccc2)NC(=O)[C@H](CCC(N)=O)NC(=O)[C@H]([C@@H](C)O)NC(=O)[C@@H]2CCCN2C(=O)[C@@H]2CCCN2C1=O (stereo partly drawn) [3BP-4552, N4Ac-PEG6-Ttds-Nle-[Cys(3MeBn)-Pro-Pro-Thr-Gln-Phe-Cys]-OH] | 10 to 79.4 | – | 88.3 | – | 0.52 | 0.14 | 0.07 | 3.17 | 3.4 | 1.34 | 7.92 | 6.86 | 5.21 | 10 to 79.4 | –
5 | CCCC[C@H](NC(=O)CCC(=O)NCCCOCCOCCOCCCNC(=O)CN1CCN(C(=O)C(CNCCN)CNCCN)CC1)C(=O)N[C@H]1CSCc2cncc(c2)CSCC(C(=O)O)NC(=O)[C@H](Cc2ccccc2)NC(=O)[C@H](CCC(N)=O)NC(=O)[C@H]([C@@H](C)O)NC(=O)[C@@H]2CCCN2C(=O)[C@@H]2CCCN2C1=O (stereo partly drawn) [3BP-4774, N4Ac-PPAc-Ttds-Nle-[Cys(3Lut)-Pro-Pro-Thr-Gln-Phe-Cys]-OH] | 10 to 79.4 | – | 88.8 | – | 0.08 | 0.06 | 0.03 | 1.87 | 0.85 | 0.48 | 6.14 | 3.7 | 1.74 | 10 to 79.4 | 86.1
6 | CCCC[C@H](NC(=O)CCC(=O)NCCCOCCOCCOCCCNC(=O)CCOCCOCCOCCOCCOCCOCCNC(=O)C(CNCCN)CNCCN)C(=O)N[C@H]1CSCc2cccc(c2)CSC[C@@H](C(=O)O)NC(=O)[C@H](Cc2ccccc2)NC(=O)[C@H](CCC(=O)O)NC(=O)[C@H]([C@@H](C)O)NC(=O)[C@@H]2CCCN2C(=O)[C@@H]2CCCN2C1=O [3BP-4780, N4Ac-PEG6-Ttds-Nle-[Cys(3MeBn)-Pro-Pro-Thr-Glu-Phe-Cys]-OH] ({X6-Suc}-[Nle]CPPTEFC-OH; linker 2-8 via mXylylene) | 10 to 79.4 | – | 95.0 | – | 0.81 | 0.61 | 0.43 | 8.11 | 6.14 | 4.36 | 6.71 | 7.01 | 7.92 | < 10 | 92.3
7 | CCCC[C@H](NC(=O)CCC(=O)NCCCOCCOCCOCCCNC(=O)CN1CCN(C(=O)C(CNCCN)CNCCN)CC1)C(=O)N[C@H]1CSCc2cccc(c2)CSC[C@@H](C(=O)O)NC(=O)[C@H](Cc2ccccc2)NC(=O)[C@H](CCC(=O)O)NC(=O)[C@H]([C@@H](C)O)NC(=O)[C@@H]2CCCN2C(=O)[C@@H]2CCCN2C1=O [3BP-4782, N4Ac-PPAc-Ttds-Nle-[Cys(3MeBn)-Pro-Pro-Thr-Glu-Phe-Cys]-OH] ({X1-Suc}-[Nle]CPPTEFC-OH; linker 2-8 via mXylylene) | 10 to 79.4 | – | 97.1 | – | 0.69 | 0.47 | 0.36 | 7.28 | 5.78 | 4.24 | 6.2 | 6.77 | 7.17 | 10 to 79.4 | 95.8
8 | CCCC[C@H](NC(=O)CCC(=O)NCCCOCCOCCOCCCNC(=O)CN1CCN(C(=O)C(CNCCN)CNCCN)CC1)C(=O)N[C@H]1CSCc2cccc(c2)CSC[C@@H](C(=O)N[C@@H](CC(=O)O)C(=O)O)NC(=O)[C@H](Cc2ccccc2)NC(=O)[C@H](CCC(=O)O)NC(=O)[C@H]([C@@H](C)O)NC(=O)[C@@H]2CCCN2C(=O)[C@@H]2CCCN2C1=O [3BP-4785, N4Ac-PPAc-Ttds-Nle-[Cys(3MeBn)-Pro-Pro-Thr-Glu-Phe-Cys]-Asp-OH] ({X1-Suc}-[Nle]CPPTEFCD-OH; linker 2-8 via mXylylene) | < 10 | – | 95.3 | – | 0.92 | 0.64 | 0.48 | 3.47 | 2.14 | 1.63 | 4.2 | 4.14 | 4.32 | < 10 | 93.8
